From PMC8717867, “The Oxidation Cascade of a Rare Multifunctional P450 Enzyme Involved in Asperterpenoid A Biosynthesis” (Frontiers in Chemistry, 2021)

molecular target: T1, mPTPB (Mycobacterium tuberculosis protein tyrosine phosphatase B) (Mycobacterium tuberculosis, UniProt I6WXK4); assay: biochemical; design: mPTPB phosphatase inhibition, pNPP substrate, absorbance at 405 nm; conditions: read-out: 50 uM inhibition rate (%)
T1 construct: gene ptpB
T1 sequence (I6WXK4 whole entry, looked up): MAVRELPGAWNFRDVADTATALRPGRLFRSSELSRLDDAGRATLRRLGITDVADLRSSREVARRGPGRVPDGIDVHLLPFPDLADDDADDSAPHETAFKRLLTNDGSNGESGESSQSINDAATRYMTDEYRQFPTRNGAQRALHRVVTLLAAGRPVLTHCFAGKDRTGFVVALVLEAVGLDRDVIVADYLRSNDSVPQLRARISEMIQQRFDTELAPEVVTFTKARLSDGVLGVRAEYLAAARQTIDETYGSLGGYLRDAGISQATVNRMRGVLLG

Structure (SMILES)	inhibition at 50 µM [%]
CC(C)[C@H]1CC[C@@]2(C)CC[C@]3(CO)CC4=C(C(=O)O)CC[C@H]4[C@]4(C)C[C@@H]4[C@H]3[C@H]12 [asperterpenoid A]	98.2
CC(C)[C@H]1CC[C@@]2(C)CC[C@]3(C(=O)O)CC4=C(C(=O)O)CC[C@H]4[C@]4(C)C[C@@H]4[C@H]3[C@H]12 [asperterpenoid B]	98.9
CC(C)[C@H]1C[C@@H](O)[C@@]2(C)CC[C@]3(CO)CC4=C(C(=O)O)CC[C@H]4[C@]4(C)C[C@@H]4[C@H]3[C@H]12 [asperterpenoid C]	45.1
CC(C)C1CCC2(C)CCC3(C)CC4=C(C(=O)O)CCC4C4(C)CC4C3C12 (stereo not shown) [compound 1, asperterpenoid D]	52.8
CC(C)C1CCC2(C)CCC3(C)CC4=C(CO)CCC4C4(C)CC4C3C12 (stereo not shown) [compound 2, asperterpenoid E]	46.8
CC(C)C1CCC2(C)CCC3(CO)CC4=C(CO)CCC4C4(C)CC4C3C12 (stereo not shown) [compound 3, asperterpenoid F]	48
CC1=C2C[C@@]3(C)CC[C@]4(C)CC[C@H](C(C)C)[C@H]4[C@@H]3[C@H]3C[C@@]3(C)[C@@H]2CC1 [preasperterpenoid A]	31.1
